Read-outs that look alike come from different tables or passages of the source.
B1: GLYAT4621: glyphosate acetyltransferase protein encoded by the glyat4621 gene, expressed in DP-098140-6 maize (protein)
chain: MAIEVKPINAEDTYDLRHRVLRPNQPIEACMFESDLTRSAFHLGGFYGGKLISVASFHQAEHSELQGKKQYQLRGVATLEGYREQKAGSSLVKHAEEILRKRGADMIWCNARTSASGYYRKLGFSEQGEVFDTPPVGPHILMYKR
modifications: GAT4621 probe
notes: glyphosate acetyltransferase protein encoded by the glyat4621 gene, expressed in DP-098140-6 maize

Legend:
[1] = test system: near isoline control maize; experiment: Greenhouse herbicide tolerance, visual herbicide injury rating, two generations; assay type: in vivo, Zea mays; conditions: for Average Herbicide Injury Rating: Control maize, 0-100 scale, applied at V4
Description: (§1) The objective of this study was to evaluate the herbicide tolerance and protein expression in maize containing the event DP-098140-6.
(§2) Plants were grown in a greenhouse using a randomized complete block design containing four blocks. Each block consisted of twenty-four flats. Flats representing entries 1-12 (segregating 1:1) contained approximately fifteen plants per entry, while flats representing entries 13-24 (non-segregating) contained approximately ten plants per entry. Trait confirmation for GLYAT4621 was conducted for test and control entries at the V2 growth stage using lateral flow strip tests specific for the GLYAT protein. Plants with positive trait confirmation results (expressing GLYAT4621) were used for test entries and plants with negative trait confirmation results (not expressing GLYAT4621) were used as the control entries. Any remaining negative segregants not used for controls were then removed and remaining positive plants were thinned to 5 plants per entry within each block (treatment). At the V4 growth stage, a herbicide treatment containing glyphosate (1.46 L/ha or 20 oz/acre)+nonionic surfactant (0.25% vol./vol.)+ammonium sulfate (3.4 kg/ha) was applied to entries 1, 9, 13, and 21; herbicides containing thifensulfuron (3.5 g/ha or 0.5 oz/acre) and tribenuron (3.5 g/ha or 0.5 oz/acre) each containing nonionic surfactant (0.25% vol./vol.)+ammonium sulfate (3.4 kg/ha) were applied to entries 2, 10, 14 and 22; and a tank mixture of herbicides containing glyphosate, thifensulfuron and tribenuron was applied to entries 3, 11, 15, and 23 (Table 15).
(§3) Herbicide injury was evaluated visually at 14 and 21 days after herbicide application by estimating herbicide injury percentage, where “0” represented no visible injury and “100” represented complete plant death. The injury rating took into account all symptoms of herbicide injury when compared to the untreated entry for the same maize line. Injury symptoms included discoloration, leaf speckling, and wilting. The untreated entries for each maize line were rated as 0% injury and the herbicide treated entries of the same maize line were rated by comparing them to this untreated entry. Photographs were taken at 21 days following herbicide application to record herbicide injury. In order to further characterize tolerance to ALS-inhibiting herbicides, a characteristic of the zm-hra gene in DP-098140-6 maize, plant heights were measured for all entries at 14 and 21 days post herbicide treatment. Plant height was measured in cm from the soil surface to the tip of the highest leaf when extended by hand.
(§4) Means, standard error and P-values were calculated for plant height data. Means were calculated for herbicide injury scores. Means, ranges and standard deviations of protein expression data were calculated for each protein expressed in leaf and seed tissues.

DP-098140-6 maize [2] = experiment: as above; assay type: in vivo, Zea mays; conditions: applied at V4
Description: as §1, §2, §3, §4

[3] = test system: near isoline control maize; assay type: in vivo, Zea mays
Description: as §2, §3, §4

DP-098140-6 maize [4] = assay type: in vivo, Zea mays; conditions: 98140 maize
Description: as §2, §3, §4

[5] = GLYAT4621 sandwich ELISA, leaf tissue at V5 stage (pg/μg total extractable protein); parameters: species or system Zea mays; conditions: DP-098140-6 maize leaf tissue, V5 growth stage, greenhouse; 20 plants
Description: Expression of the GLYAT4621 and Zm-HRA proteins has been evaluated on the leaf tissue collected at the V5 stage of growth from plants cultivated in greenhouses. For each sample, four fresh leaf punches were collected and ground in sample extraction buffer using a GenoGrinder (Spex Certiprep). Total Extractable Protein (TEP) was determined using the Bio-Rad Protein assay, which is based on the Bradford dye-binding procedure. Sample extracts were diluted in sample extraction buffer for ELISA analysis.
The GLYAT4621 and ZM-HRA ELISA's utilize a “sandwich” format for the quantification of the specific target protein in plant tissue extracts. […] The reaction is stopped with Sulfuric acid and the optical density of each well is determined using a Molecular Devices plate reader with a wavelength setting of 450 nm-650 nm. […] The mean concentration from the duplicate wells is expressed as pg target protein/μg of total extractable protein (TEP). The sample lower limit of quantification (LLOQ) was 10 pg GLYAT4621 protein/μg TEP and the upper detection limit was 2000 pg GLYAT4621 protein/μg TEP. The sample lower limit of quantification was 20 pg ZM-HRA protein/μg TEP and the upper detection limit was 5000 pg ZM-HRA protein/μg TEP.

Molecule	Average Herbicide Injury Rating ([1]; Generation 1, 14 days post-treatment)	Average Herbicide Injury Rating ([1]; Generation 1, 21 days post-treatment)	Average Herbicide Injury Rating ([1]; Generation 2, 14 days post-treatment)	Average Herbicide Injury Rating ([1]; Generation 2, 21 days post-treatment)	injury ([1]; sprayed control maize, both generations)	Average Herbicide Injury Rating (DP-098140-6 maize [2]; Generation 1, 14 days post-treatment, 0 = no visible injury, 100 = complete plant death)	Average Herbicide Injury Rating (DP-098140-6 maize [2]; Generation 1, 21 days post-treatment, 0-100 scale)	Average Herbicide Injury Rating (DP-098140-6 maize [2]; Generation 2, 14 days post-treatment, 0-100 scale)	Average Herbicide Injury Rating (DP-098140-6 maize [2]; Generation 2, 21 days post-treatment, 0-100 scale)	Plant height, Least Square Means ([3]; Generation 1, 14 days following treatment, 0 cm = visible plant that has died due to herbicide treatment)	Plant height, Least Square Means ([3]; Generation 1, 21 days following treatment, 0 cm = visible plant that has died due to herbicide treatment)	Plant height, Least Square Means ([3]; Generation 2, 14 days following treatment, 0 cm = plant died due to herbicide)	Plant height, Least Square Means ([3]; Generation 2, 21 days following treatment, 0 cm = plant died due to herbicide)	Plant height, Least Square Means (DP-098140-6 maize [4]; Generation 1, 14 days following treatment)	Plant height, Least Square Means (DP-098140-6 maize [4]; Generation 1, 21 days following treatment)	Plant height, Least Square Means (DP-098140-6 maize [4]; Generation 2, 14 days following treatment)	Plant height, Least Square Means (DP-098140-6 maize [4]; Generation 2, 21 days following treatment)	Expression level of GLYAT4621 protein, Mean [5]
O=C(O)CNCP(=O)(O)O [Glyphosate, glyphosate]	100	100	100	100	100%	0	0	0	0	0.00 cm	0.00 cm	0.00 cm	0.00 cm	103 cm	120 cm	101 cm	115 cm	
B1																		571.7 pg/μg TEP

Source: patent US7897846B2, “Maize event DP-098140-6 and compositions and methods for the identification and/or detection thereof” (Pioneer Hi-Bred Int'l, Inc., priority 2006, dated 2011)
